What was measured:
Format in all cases: in vivo
[1] = test system: KK-Ay/Ta mice; experiment: Blood sugar level in type-II diabetes model mice, oral dosing twice daily for 14 days; conditions: for Blood sugar level: male KK-Ay/Ta mice, average ± standard error, N=6
Description: (§1) Use was made of 22-week old male KK-Ay/Ta mice (type-II diabetes model mice available from Clea Japan Inc.). Restricted feeding was effected such that the animals were starved from 9:00 a.m. to 5:00 p.m. daily through the experimental period.
(§2) (E)-3-[2-(5,6-Dimethoxy-3-methyl-1,4-benzoquinonyl)]-2-nonylpropenoic acid as a representative example of the compounds of the present invention was suspended in 0.5% methylcellulose (MC) and orally administered twice 9:00 a.m. and 5:00 p.m. daily for 14 days in accordance with the following schedule.
(§3) The 0.5% methylcellulose (MC) was administered to a control group in the same manner as above.
(§4) All blood specimens were collected from the cardal veins, and blood sugar and blood insulin levels were measured on the day preceding the administration (day 0) and 3 days (day 3), 7 days (day 7), 10 days (day 10) and 14 days (day 14) after the administration. Hemoglobin AIc (HbAIc) was measured on day 0 and day 14. The measurements of blood sugar level, blood insulin level and HbAIc were conducted by the use of Fuji Dry-Chem System 5500 (manufactured by Fuji Medical Systems Co., Ltd.), insulin measuring kit (EIA sandwich method, manufactured by Morinaga Seikagaku Kenkyusho) and DCA 2000 System (manufactured by Bayer Diagnosics), respectively. The results are expressed by the average ± standard error with respect to each group. The significant difference test as compared with the control group was performed by the Student t-test.

[2] = test system: KK-Ay/Ta mice; experiment: Hemoglobin AIc (HbAIc) in type-II diabetes model mice, oral dosing twice daily for 14 days; conditions: 300 mg/Kg/day p.o. for 14 days, KK-Ay/Ta mice (Table 3)
Description: as §1, §2, §3
as §4, with “The significant difference test as compared with the control group was performed by the Student t-test.” left out

[3] = test system: SD rat; experiment: Single administration toxicity test in rat (lethal dose); conditions: observed for 14 days
Description: (§5) (E)-3-[2-(5,6-Dimethoxy-3-methyl-1,4-benzoquinonyl)]-2-nonylpropenoic acid was used as a test compound.

[4] = test system: beagle; experiment: Single administration toxicity test in beagle (lethal dose); conditions: p.o., observed for 21 days
Description: as §5

CCCCCCCCC/C(=C\C1=C(C)C(=O)C(OC)=C(OC)C1=O)C(=O)O [invention compd., (E)-3-[2-(5,6-Dimethoxy-3-methyl-1,4-benzoquinonyl)]-2-nonylpropenoic acid]
hypoglycemic effect (in words) ([1]; 300 mg/Kg/day p.o. for 14 days, KK-Ay/Ta mice, compared with the control group (Table 2, Fig. 1)): excellent hypoglycemic effect
Blood sugar level ([1]; Day 0 (day preceding the administration, baseline)): 465.7 ± 21.51 mg/dL
Blood sugar level ([1]; Day 0 (day preceding the administration, baseline), listed as the compound of the present invention): 465.7 ± 21.51 mg/dL
Blood sugar level ([1]; Day 3, 300 mg/Kg/day p.o. (100 a.m. + 200 p.m.), 300 mg/kg/day): 380.8 ± 52.42 mg/dL
Blood sugar level ([1]; Day 3, 300 mg/Kg/day p.o. (100 a.m. + 200 p.m.), listed as the compound of the present invention, 300 mg/kg/day): 380.8 ± 52.42 mg/dL
Blood sugar level ([1]; Day 7, 300 mg/Kg/day p.o. (100 a.m. + 200 p.m.), 300 mg/kg/day): 319.8 ± 27.49 mg/dL
Blood sugar level ([1]; Day 7, 300 mg/Kg/day p.o. (100 a.m. + 200 p.m.), listed as the compound of the present invention, 300 mg/kg/day): 319.8 ± 27.49 mg/dL
Blood sugar level ([1]; Day 10, 300 mg/Kg/day p.o. (100 a.m. + 200 p.m.), 300 mg/kg/day): 334.3 ± 33.75 mg/dL
Blood sugar level ([1]; Day 10, 300 mg/Kg/day p.o. (100 a.m. + 200 p.m.), listed as the compound of the present invention, 300 mg/kg/day): 334.3 ± 33.75 mg/dL
Blood sugar level ([1]; Day 14, 300 mg/Kg/day p.o. (100 a.m. + 200 p.m.), 300 mg/kg/day): 280.2 ± 37.31 mg/dL
Blood sugar level ([1]; Day 14, 300 mg/Kg/day p.o. (100 a.m. + 200 p.m.), listed as the compound of the present invention, 300 mg/kg/day): 280.2 ± 37.31 mg/dL
HbAIc change as compared with the control group (in words) [2]: decrease trend
Lethal dose ([3]; i.v.): >60 mg/kg
Lethal dose ([3]; p.o.): 2000 mg/kg
Lethal dose [4]: >400 mg/kg

Reference: patent EP0801949A1, “Hypoglycemic quinone derivative” (Eisai Co., Ltd., priority 1996, dated 1997)
